Measurements: US11059846B2, “Immune stimulating compound” (ISR IMMUNE SYSTEM REGULATION HOLDING AB (PUBL), priority 2017, dated 2021)

What was measured:
[1] = target: T1, human TLR2 (Homo sapiens, UniProt O60603); experiment: TLR2 reporter assay (HEK-293-TLR cells, SEAP reporter); type: cell-based; conditions: compound 1 down to 5 μM; others up to 20 μM
T1 construct: host or cells: recombinant HEK-293-TLR cell lines
Description: These cell lines functionally over-express human TLR2 protein as well as a reporter gene which is a secreted alkaline phosphatase (SEAP). The production of this reporter gene is driven by an NFkB inducible promoter. […] 20 μl of each test article were used to stimulate the hTLR2 reporter cell lines in a 200 μl of final reaction volume. Samples were tested in duplicate, with at least two concentrations tested −20 μM and 10 μM.
Compounds were tested using a TLR2 reporter assay (see general methods) that measured for stimulation of the TLR2 receptor.

[2] = test system: CMV specific CD8+ T cells; experiment: CMV cultures: phenotype of CMV specific CD8+ T cells; type: cell-based, Human; conditions: CMV antigen, 6 days
Description: FIG. 8. Upregulation of IL-7 receptor a (CD127) on CMV specific CD8 T cells after incubation with compound 1, measured with flow cytometry.
Human peripheral blood mononuclear cells (PBMCs) were purified from healthy CMV positive donors with Ficoll-Paque density centrifugation. The PBMC were labeled with 5 μM celltrace violet (Invitrogen) in PBS for 15 minutes and then washed with complete cell culture medium. The labeled PBMC was cultured in the presence of a peptide library spanning the CMV pp65 protein (1 μg peptide/ml, JPT) in AIM-V media (Invitrogen) supplemented with L-glutamine, Sodium pyruvate (Sigma), 10% fetal bovine serum, 100 μg/mL penicillin and 100 μg/mL streptomycin (Hyclone) for 6-8 days in 37° C., 5% CO2. Cell proliferation was assessed with flow cytomtery using a BD FACS Canto II flow cytometer.
Study 7: CMV virus specific T cell proliferation was also affected by compound 1. […] CD127 is crucial for T cell homeostasis, differentiation and function, and reduced expression correlates with disease severity in HIV and other chronic viral diseases (Crawley et al Sem Imm 2012).

[3] = test system: C57bl/6 mice; experiment: MHC class I expression on CD11b+ splenocytes of mice after i.v. injection, flow cytometry; type: in vivo; conditions: spleen removed 24 h later
Description: FIG. 15: % MHC class I high CD11b+ cells in spleen of 3 individual C57bl/6 mice injected 24 h previously with indicated compound. MHC class I and CD11b expression was measured by flow cytometry.
Study 14: Compound 1 or 2 was administered i.v. to C57bl/6 mice.

[4] = test system: Human peripheral blood mononuclear cells (PBMCs); experiment: Marker expression on PBMC by flow cytometry; type: cell-based; conditions: 24 h
Description: Human peripheral blood mononuclear cells (PBMCs) were purified from healthy donors with Ficoll-Paque density centrifugation. Cells were cultured in complete RPMI-1640 media (Invitrogen) supplemented with 25 mM HEPES, L-glutamine, Sodium pyruvate (Sigma), 10% fetal bovine serum, 100 μg/mL penicillin and 100 μg/mL streptomycin (Hyclone) for 24-72 hours in 37° C., 5% CO2 and stimulated with and increasing concentrations of compound 1 and 2. Cells were then washed in PBS and stained with monoclonal antibodies specific for cell surface markers (BD Pharmingen) and analysed with flow cytomtery using a BD FACS Canto II flow cytometer. All samples were tested in duplicates.
Human peripheral blood mononuclear cells (PBMCs) were purified from healthy donors with Ficoll-Paque density centrifugation. Cells were cultured in complete RPMI-1640 medium (Invitrogen) supplemented with 25 mM HEPES, L-glutamine, Sodium pyruvate (Sigma), 10% fetal bovine serum, 100 μg/mL penicillin and 100 μg/mL streptomycin (Hyclone). Cells were stimulated for 24 h (study 1-4) or 48 h to 1 week (study 5) in 37° C., 5% CO2 with increasing concentrations of compound 1 and 2 in tissue culture plates. The cells were removed from the plate, washed in PBS and analysed for expression of cell specific surface markers and MHC class I with flow cytometry using monoclonal antibodies from BD Pharmingen and a FACS Canto II flow cytometer.

[5] = test system: CD4+ T cells; experiment: IL-1beta secretion from CD4+ T cells, cytometric bead assay; type: cell-based; conditions: 2 days
Description: (§1) FIG. 13: IL1b secretion (as measured by cytometric bead assay) from PBMC, macro-phages or CD4 T cells stimulated with indicated compound for 48 h.
(§2) Study 12: PBMCs, macrophages and CD4+ T cells where exposed to compounds 1 and 2 for 2 days.

[6] = test system: PBMCs; experiment: Cytokine/chemokine secretion from PBMC, cytometric bead assay; type: cell-based; conditions: 2 days
Description: (§3) FIG. 11: Chemokine RANTES secretion (as measured by cytometric bead assay) from PBMC or macrophages stimulated with indicated compound for 48 h.
(§4) FIG. 12: IL12p70 secretion (as measured by cytometric bead assay) from PBMC or macrophages stimulated with indicated compound for 48 h.
as §1
(§5) Study 10: PBMCs and macrophages where exposed to compounds 1 or 2 for 2 days (FIG. 11).
(§6) Study 11: PBMCs and macrophages where exposed to compounds 1 and 2 for 2 days.
as §2

[7] = test system: Macrophages from healthy donors; experiment: Cytokine/chemokine secretion from macrophages, cytometric bead assay; type: cell-based; conditions: 2 days
Description: FIG. 10: Interferon-gamma secretion (as measured by cytometric bead assay) from macrophages stimulated with indicated compound for 48 h.
as §3, §4, §1
Study 9: Macrophages from healthy donors where exposed to compounds 1 or 2 for 48 hours. […] Compound 1 is therefore able to induce IFN-gamma secretion in macrophages from healthy donors.
as §5, §6, §2

[8] = test system: C57bl/6 mice; experiment: CD25 high cells in blood of mice after i.v. injection, flow cytometry; type: in vivo
Description: FIG. 14: % CD25 high cells in blood of C57bl/6 mice injected 24 h previously with indicated dose of compound 1. CD25 expression was measured by flow cytometry.
Study 13: Compound 1 was administered i.v. to C57bl/6 mice at 0.165 mg/kg to 5 mg/kg. CD25+ cell abundance was increased in animals receiving the highest dose of 5 mg/kg (FIG. 14), as was body weight in the same group (not shown).

[9] = test system: Monocytes differentiated into macrophages; experiment: CD80 expression on monocytes differentiated into macrophages, flow cytometry; type: cell-based, Human; conditions: 24 h
[10] = test system: PBMCs from CMV infected donors; experiment: IFN-gamma secretion from PBMCs of CMV infected donors with CMV antigen, cytometric bead assay; type: cell-based, Human; conditions: 3 days
Excerpt: FIG. 9: Interferon-gamma secretion (as measured by cytometric bead assay) from PBMCs (from a CMV+ donor) grown with CMV peptides in the presence or absence of compound 1 or 2 for 5 days.
Study 8: PBMCs from CMV infected donors cultured in the presence of CMV antigen where either untreated or exposed to compound 1 or compound 2 for 3 days.

T1 sequence (O60603 21-784): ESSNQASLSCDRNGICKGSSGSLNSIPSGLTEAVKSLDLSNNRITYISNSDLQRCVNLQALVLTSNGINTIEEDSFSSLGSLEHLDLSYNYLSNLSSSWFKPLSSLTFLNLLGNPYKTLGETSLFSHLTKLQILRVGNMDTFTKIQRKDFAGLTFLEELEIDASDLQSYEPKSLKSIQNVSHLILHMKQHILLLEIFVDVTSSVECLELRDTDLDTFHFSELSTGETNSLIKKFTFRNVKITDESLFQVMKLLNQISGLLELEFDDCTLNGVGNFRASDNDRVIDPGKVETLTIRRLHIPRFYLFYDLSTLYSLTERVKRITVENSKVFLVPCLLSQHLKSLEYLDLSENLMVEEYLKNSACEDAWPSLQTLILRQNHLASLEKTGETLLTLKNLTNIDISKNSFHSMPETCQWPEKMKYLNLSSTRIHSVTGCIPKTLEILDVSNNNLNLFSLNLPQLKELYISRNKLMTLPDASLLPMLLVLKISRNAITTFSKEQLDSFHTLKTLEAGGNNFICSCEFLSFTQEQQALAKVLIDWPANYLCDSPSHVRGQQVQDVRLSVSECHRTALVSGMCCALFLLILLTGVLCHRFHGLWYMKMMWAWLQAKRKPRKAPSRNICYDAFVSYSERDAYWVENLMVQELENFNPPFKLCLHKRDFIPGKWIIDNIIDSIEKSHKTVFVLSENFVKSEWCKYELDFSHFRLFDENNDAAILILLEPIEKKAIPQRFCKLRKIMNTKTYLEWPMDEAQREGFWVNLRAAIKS

Row | Compound | stimulation of TLR2 (in words) [1] | expression of IL-7 receptor a (CD127) on activated CMV specific CD8+ T cells [2] | splenocyte cells (CD11b+) with high MHC I expression [3] | CD69 expression on B cells ([4]; 1 μM) | CD69 expression on CD4+ T cells ([4]; 1 μM) | CD80 expression on monocytes [4] | MHC class I (HLA-ABC) expression on B-cells [4] | MHC class I (HLA-ABC) expression on T-cells [4] | MHC class II (HLA-DR) expression on monocytes [4] | IL-1beta secretion in CD4+ T cells [5] | IL-1beta secretion in PBMCs [6] | RANTES expression in PBMCs [6] | IL-1beta secretion in macrophages [7] | RANTES expression in macrophages [7] | body weight ([8]; 5 mg/kg group (not shown)) | CD25+ cell abundance in blood ([8]; highest dose of 5 mg/kg, 24 h) | CD80 expression on macrophages [9] | IFN-gamma secretion [10]
1 | CC[C@H]1OC(=O)[C@H](C)[C@@H](O[C@H]2C[C@@](C)(OC)[C@@H](O)[C@H](C)O2)[C@H](C)[C@@H](O[C@@H]2O[C@H](C)C[C@H](N(C)C)[C@H]2O)[C@](C)(O)C[C@@H](C)CN(C)[C@H](C)[C@@H](O)[C@]1(C)O [Azithromycin] | little or no stimulation |  |  |  |  |  |  |  |  |  |  |  |  |  |  |  |  | 
2 | CC[C@H]1OC(=O)[C@H](C)[C@@H](O[C@H]2C[C@@](C)(OC)[C@@H](O)[C@H](C)O2)[C@H](C)[C@@H](O[C@@H]2O[C@H](C)C[C@H](N(C)C)[C@H]2O)[C@](C)(O)C[C@@H](C)C(=O)[C@H](C)[C@@H](O)[C@]1(C)O [Erythromycin] | little or no stimulation |  |  |  |  |  |  |  |  |  |  |  |  |  |  |  |  | 
3 | CC[C@H]1OC(=O)[C@H](C)[C@@H](O[C@H]2C[C@@H](N(C)C)[C@H](O)[C@@H](C)O2)[C@H](C)[C@@H](O)[C@](C)(O)C[C@@H](C)CN(C)[C@H](C)[C@@H](O)[C@]1(C)O [Compound 1] | stimulated TLR2 | increased expression | increase | upregulated | upregulated | upregulation | upregulation | upregulation | upregulation | no IL-1beta was induced | slightly | twofold upregulation | increased | high expression | increased | increased | upregulated | induced secretion of high levels
